According to patent US20160220569A1, “CDK4/6 Inhibitor Dosage Formulations For The Protection Of Hematopoietic Stem And Progenitor Cells During Chemotherapy” (G1 Therapeutics, Inc., priority 2015, published 2016):
Like-named read-outs stand apart in the source and are kept apart here.

Assay: 14-day oral gavage toxicokinetic study in rats
Assay type: in vivo
Details: male, rat, plasma, po; for concentration at 8 h / concentration at 12 h / concentration at 24 h / concentration at […] / concentration at 0.5 h / concentration at 1 h / concentration at 2 h / concentration at 4 h: rats; for half-life: read-out: t½ (converted)
Procedure: Plasma was obtained from blood samples collected from rats in a composite sampling scheme, with 3 samples collected per sex, per dose, at each target collection time, as illustrated in Table 21 to Table 25. Samples were collected from the vehicle control group on Day 1 and Day 14 at 3 hour after administration. […] Blood samples were collected in tubes containing K3EDTA as an anticoagulant and placed on ice until processed to plasma via centrifugation. Samples were stored frozen at −80° C. until shipment to the bioanalytical laboratory for analysis.
The following parameters were determined:
Cmax: Maximum observed plasma concentration (ng/mL).
A value of 0 ng/mL was assigned to all values below the lower limit of quantitation (BLQ, <10.0 ng/mL).
AUC(0-inf): Area under the plasma concentration vs. time curve extrapolated from 0 to infinity (ng*h/mL), calculated as AUC(0-t)+AUC(t-inf) where AUC(t-inf) is calculated as last measurable concentration (CLast) divided by ke, where ke is the elimination rate constant determined by linear regression of the last three analytically measured points on the log plasma concentration vs. time curve. The selection criteria of the data points for inclusion in the calculation of ke required that at least three data points representing the terminal phase (after Tmax) were regressed and that R2≧0.850 when rounded.
CL: Clearance (L/h/kg), calculated as the dose divided by AUC(0-t).
Vd: Volume of distribution (L/kg), calculated as dose divided by the product of ke and AUC(0-inf).
Vdss: Steady state volume of distribution (L/kg), calculated as clearance […] mean residence time, where mean residence time is calculated as the area under the first moment curve divided by AUC(0-t).
t½: Elimination half-life (h), calculated as ln(2)/ke, where ke is the elimination rate constant determined by linear regression. Half-life was defined as not determined if regression criteria (specified in AUC(0-inf) above) were not met.
Cmax/Dose: Normalized Cmax, calculated as Cmax divided by total dose.
AUC/Dose: Normalized AUC, calculated as AUC(0-t) divided by total dose.
ii. Statistical Analysis Mean and standard deviation (SD) were calculated in Watson. Values of BLQ were assigned a value of 0 ng/mL for mean calculations. Concentration values and derived TK parameters were reported to three significant figures.

[1] = 15 mg/kg, oral 15 mg/kg, Study Day 1, Male
[2] = 15 mg/kg, oral 15 mg/kg, Study Day 14, Male
[3] = 30 mg/kg, oral 30 mg/kg, Study Day 1, Male

CN1CCN(c2ccc(Nc3ncc4cc5n(c4n3)C3(CCCCC3)CNC5=O)nc2)CC1 [Compound 1, 2′-((5-(4-methylpiperazin-1-yl)pyridin-2-yl)amino)-7′,8′-dihydro-6′H-spiro[cyclohexane-1,9′-pyrazino[1′,2′:1,5]pyrrolo[2,3-d]pyrimidin]-6′-one]
concentration at 8 h (15 mg/kg, Mean Compound 1 Plasma Concentration, oral 15 mg/kg, Day 1, 8 h, Male): 1020 ng/mL
concentration at 12 h (15 mg/kg, Mean Compound 1 Plasma Concentration, oral 15 mg/kg, Day 1, 12 h, Male): 618 ng/mL
concentration at 24 h (15 mg/kg, Mean Compound 1 Plasma Concentration, oral 15 mg/kg, Day 1, 24 h, Male): 84.5 ng/mL
concentration at […] (15 mg/kg, Mean Compound 1 Plasma Concentration, oral 15 mg/kg, Day 1, […], Male): 35.6 ng/mL
concentration at 0.5 h (15 mg/kg, Mean Compound 1 Plasma Concentration, oral 15 mg/kg, Day 14, 0.5 h, Male): 740 ng/mL
concentration at 1 h (15 mg/kg, Mean Compound 1 Plasma Concentration, oral 15 mg/kg, Day 14, 1 h, Male): 842 ng/mL
concentration at 2 h (15 mg/kg, Mean Compound 1 Plasma Concentration, oral 15 mg/kg, Day 14, 2 h, Male): 1320 ng/mL
concentration at 4 h (15 mg/kg, Mean Compound 1 Plasma Concentration, oral 15 mg/kg, Day 14, 4 h, Male): 1080 ng/mL
concentration at 8 h (15 mg/kg, Mean Compound 1 Plasma Concentration, oral 15 mg/kg, Day 14, 8 h, Male): 1170 ng/mL
concentration at 12 h (15 mg/kg, Mean Compound 1 Plasma Concentration, oral 15 mg/kg, Day 14, 12 h, Male): 626 ng/mL
concentration at 24 h (15 mg/kg, Mean Compound 1 Plasma Concentration, oral 15 mg/kg, Day 14, 24 h, Male): 60.6 ng/mL
concentration at […] (15 mg/kg, Mean Compound 1 Plasma Concentration, oral 15 mg/kg, Day 14, […], Male): 107 ng/mL
AUC(0-inf) [1]: 16000 ng·h/mL
AUC(0-t) [1]: 15500 ng·h/mL
Cmax [1]: 1160 ng/mL
Tmax [1]: 4 h
half-life [1]: 4.39 h
AUC(0-t) [2]: 16300 ng·h/mL
Cmax [2]: 1320 ng/mL
Tmax [2]: 2 h
half-life [2]: 3.7 h
concentration at 0.5 h (30 mg/kg, Individual Compound 1 Plasma Concentration, daily oral 30 mg/kg, Day 1, Male, 0.5 h): 1450 ng/mL
concentration at 1 h (30 mg/kg, Individual Compound 1 Plasma Concentration, daily oral 30 mg/kg, Day 1, Male, 1 h): 1620 ng/mL
concentration at 2 h (30 mg/kg, Individual Compound 1 Plasma Concentration, daily oral 30 mg/kg, Day 1, Male, 2 h): 1810 ng/mL
concentration at 4 h (30 mg/kg, Individual Compound 1 Plasma Concentration, daily oral 30 mg/kg, Day 1, Male, 4 h): 2660 ng/mL
concentration at 8 h (30 mg/kg, Individual Compound 1 Plasma Concentration, daily oral 30 mg/kg, Day 1, Male, 8 h): 2000 ng/mL
concentration at 12 h (30 mg/kg, Individual Compound 1 Plasma Concentration, daily oral 30 mg/kg, Day 1, Male, 12 h): 1930 ng/mL
concentration at 24 h (30 mg/kg, Individual Compound 1 Plasma Concentration, daily oral 30 mg/kg, Day 1, Male, 24 h): 280 ng/mL
concentration at 0.5 h (30 mg/kg, Individual Compound 1 Plasma Concentration, daily oral 30 mg/kg, Day 14, Male, 0.5 h): 977 ng/mL
concentration at 2 h (30 mg/kg, Individual Compound 1 Plasma Concentration, daily oral 30 mg/kg, Day 14, Male, 2 h): 1630 ng/mL
concentration at 4 h (30 mg/kg, Individual Compound 1 Plasma Concentration, daily oral 30 mg/kg, Day 14, Male, 4 h): 2080 ng/mL
concentration at 8 h (30 mg/kg, Individual Compound 1 Plasma Concentration, daily oral 30 mg/kg, Day 14, Male, 8 h): 1750 ng/mL
concentration at 12 h (30 mg/kg, Individual Compound 1 Plasma Concentration, daily oral 30 mg/kg, Day 14, Male, 12 h): 1230 ng/mL
concentration at 24 h (30 mg/kg, Individual Compound 1 Plasma Concentration, daily oral 30 mg/kg, Day 14, Male, 24 h): 208 ng/mL
concentration at […] (30 mg/kg, Individual Compound 1 Plasma Concentration, daily oral 30 mg/kg, Day 14, Male, […]): 197 ng/mL
concentration at 0.5 h (30 mg/kg, Mean Compound 1 Plasma Concentration, oral 30 mg/kg, Day 1, 0.5 h, Male): 1420 ng/mL
concentration at 1 h (30 mg/kg, Mean Compound 1 Plasma Concentration, oral 30 mg/kg, Day 1, 1 h, Male): 1400 ng/mL
concentration at 2 h (30 mg/kg, Mean Compound 1 Plasma Concentration, oral 30 mg/kg, Day 1, 2 h, Male): 1620 ng/mL
concentration at 4 h (30 mg/kg, Mean Compound 1 Plasma Concentration, oral 30 mg/kg, Day 1, 4 h, Male): 2240 ng/mL
concentration at 8 h (30 mg/kg, Mean Compound 1 Plasma Concentration, oral 30 mg/kg, Day 1, 8 h, Male): 1860 ng/mL
concentration at 24 h (30 mg/kg, Mean Compound 1 Plasma Concentration, oral 30 mg/kg, Day 1, 24 h, Male): 234 ng/mL
concentration at […] (30 mg/kg, Mean Compound 1 Plasma Concentration, oral 30 mg/kg, Day 1, […], Male): 208 ng/mL
concentration at 0.5 h (30 mg/kg, Mean Compound 1 Plasma Concentration, oral 30 mg/kg, Day 14, 0.5 h, Male): 993 ng/mL
concentration at 1 h (30 mg/kg, Mean Compound 1 Plasma Concentration, oral 30 mg/kg, Day 14, 1 h, Male): 1530 ng/mL
concentration at 2 h (30 mg/kg, Mean Compound 1 Plasma Concentration, oral 30 mg/kg, Day 14, 2 h, Male): 1590 ng/mL
concentration at 4 h (30 mg/kg, Mean Compound 1 Plasma Concentration, oral 30 mg/kg, Day 14, 4 h, Male): 2030 ng/mL
concentration at 8 h (30 mg/kg, Mean Compound 1 Plasma Concentration, oral 30 mg/kg, Day 14, 8 h, Male): 1880 ng/mL
concentration at 12 h (30 mg/kg, Mean Compound 1 Plasma Concentration, oral 30 mg/kg, Day 14, 12 h, Male): 1300 ng/mL
concentration at […] (30 mg/kg, Mean Compound 1 Plasma Concentration, oral 30 mg/kg, Day 14, […], Male): 207 ng/mL
AUC(0-inf) [3]: 34700 ng·h/mL
AUC(0-t) [3]: 33000 ng·h/mL
Cmax [3]: 2240 ng/mL
Tmax [3]: 4 h
half-life [3]: 5.05 h
AUC(0-inf) (30 mg/kg, oral 30 mg/kg, Study Day 14, Male): 30700 ng·h/mL
